Measurements: patent US20070136834A1, “Method and system for real-time analysis of biosensor data” (priority 2005, published 2007)

Test system: naturally-occurring algae
Assay: Variable chlorophyll fluorescence induction of naturally-occurring algae in Clinch River water, differential displacement (least-squares) analysis against control curve
Format: cell-based
Text: Primary-source drinking water is monitored at regular intervals, for example every three to five minutes. • 2. Each (analog) chlorophyll fluorescence induction curve that is acquired for each interval is digitized and stored. The shape of each curve is a recording of the physiological status of the algae at that point in time. • 3. For each subsequent recording, such as three to five minutes later, the variable chlorophyll fluorescence induction curve at that time can be compared with the curve that was recorded three to five minutes earlier. • 4. By using a nonlinear least-squares fit of the current data with the previous curve, a quantitative assessment can be made that determines the degree of departure of the current curve as compared to its predecessor. • 5. Based on an algorithm, such as algorithms described herein, an objective real-time assessment of the degree of departure is obtained between the variable fluorescence curves and the correlation of that departure with the possible presence of toxins in the water.
Data analysis typically comprises three steps. […] Third, the set of numbers that comprises the transformation coefficient is analyzed for specific patterns analyzed by custom software to detect “fingerprints” for specific toxins such as chemical toxins. […]

With `COP(=S)(OC)Oc1ccc([N+](=O)[O-])cc1` [methyl parathion] as the molecule, how does the “effect on shape of variable fluorescence induction curve” value read?
Its value is “change the shape of the variable fluorescence induction curve”.
